Experimental data reported in patent US8962664B2, “Selective glycosidase inhibitors and uses thereof” (Simon Fraser University, priority 2006, dated 2015).

Experiments:
Type in all cases: in vivo, Sprague-Dawley rats
[1] = test system: levels of O-GlcNAc modification in brain and muscle tissue; assay: Dose-dependent elevation of rat brain and muscle O-GlcNAc levels (IV); conditions: rats, seven hours
Experimental: The effect of intravenous (IV) administration of (3aR,5R,6S,7R,7aR)-5-(hydroxymethyl)-2-propyl-5,6,7,7a-tetrahydro-3aH-pyrano[3,2-d]thiazole-6,7-diol (Compound 54; hereinafter referred to as NAG-Bt) on levels of O-GlcNAc modification in brain and muscle tissue in Sprague-Dawley rats was measured. Animals were obtained from Charles-River as 5-week old healthy male Sprague-Dawley rats. Animals were given one week to acclimatize and at six weeks of age the appropriate treatment was initiated. Eight animals were given intravenous tail vein injections of various concentrations of NAG-Bt or vehicle alone (PBS); doses of NAG-Bt included 0, 2, 5, 10, 25, 50, 100, and 250 mg/kg. Seven hours later animals were sacrificed and tissues were removed from animals as quickly as possible to minimize post-mortem delay. Tissues were immediately frozen in liquid nitrogen and stored at −80° C. until further use. Homogenization of the tissues was carried out by manual grinding followed by homogenization in cell lysis buffer (50 mM Tris, pH 8.0, 1 mM PMSF, 0.1% NP-40, 1 mM NAG-Bt) using a tissue homogenizer (IKA) at 4° C. Insoluble cell debris was removed by centrifugation at 17,900×g for 20 minutes at 4° C. and the resulting supernatant was stored at −20° C. until use.
Western blotting of the samples thus obtained was carried out using the α-O-GlcNAc antibody (CTD110.6; Covance) and the α-actin antibody as described previously.^106 Equal amounts of homogenized brain and muscle tissue from animals treated with NAG-Bt or vehicle alone were separated by SDS-PAGE followed by probing with the primary a-O-GlcNAc antibody and an anti-IgM-mouse IgG-HRP conjugate. […] FIGS. 1C and 1D are Western blots of samples loaded in the upper panels (FIGS. 1A and 1B) probed using anti-β-actin mAb clone AC-40 followed by an anti-mouse IgG-HRP conjugate, and reveal equivalent sample loading.

[2] = test system: tau phosphorylation levels in brain tissue; assay: Decrease of rat brain tau phosphorylation levels (NAG-Bt); conditions: rats, 100 mg/kg/day in food for five days then 50 mg/kg IV, Western blot
Experimental: The effect of oral administration of NAG-Bt on tau phosphorylation levels in brain tissue in Sprague-Dawley rats was measured. All animals were obtained from Charles-River as 5-week old healthy male Sprague-Dawley rats. Animals were given one week to acclimatize and at six weeks of age the appropriate treatment was initiated. Four animals were fed food containing 100 mg/kg/day of NAG-Bt for five days. Four additional animals fed with food containing no inhibitor were used as controls. At the end of five days, the animals were fasted for 11 hours, then the four animals that received NAG-Bt in food were each given an intravenous tail vein injection of 50 mg/kg NAG-Bt. All animals were fasted for a further 5 hours, then they were sacrificed and brains were removed, stored, and processed as described in Example 29.
Western blotting of the samples thus obtained was carried out using the α-O-GlcNAc antibody (CTD110.6; Covance) and a-Actin antibody as described previously.^106 For Tau blotting, pS199, pS214, pS217, pS262, pS396, and pS422 (Biosource), Tau-5 (Lab Vision; a non-PTM dependent tau antibody), Tau-1 (Chemicon; selective for nonphosphorylated Ser195, Ser198, Ser199, and Ser202), and pS404 (Sigma) antibodies were used according to the manufacturer's protocols. Equal amounts of homogenized brain tissue from an animal treated with and without NAG-Bt were separated by SDS-PAGE followed by probing with each of the primary antibodies and an appropriate secondary antibody (either an anti-mouse or anti-rabbit IgG-HRP conjugate, as appropriate). The resulting Western blots are shown in FIGS. 2A-I, and reveal decreases of brain tau phosphorylation at multiple sites following treatment with NAG-Bt; lanes labeled “+” indicate samples from animals receiving NAG-Bt, while lanes labeled “-” indicate samples from animals receiving vehicle alone.

[3] = Eight-month repeat dose toxicology study in rats: hematology (CBC) and serum chemistry
Experimental: The toxicological effects of repeated oral administration of (3aR,5R,6S,7R,7aR)-5-(hydroxymethyl)-2-propyl-5,6,7,7a-tetrahydro-3aH-pyrano[3,2-d]thiazole-6,7-diol (NAG-Bt) to Sprague-Dawley rats over eight months was measured. All animals were obtained from Charles-River as 5-week old healthy male Sprague-Dawley rats. Animals were given one week to acclimatize and at six weeks of age the appropriate treatment was initiated. Eight animals were fed food containing 100 mg/kg/day of NAG-Bt for eight months. Eight additional animals fed with food containing no inhibitor were used as controls. […] After four months of dosing, blood and urine samples were collected from four rats in each group.

[4] = IV 250 mg/kg, densitometry of Western blot
[5] = rat, in vivo, po, 100 mg/kg/day

For `CCCC1=N[C@@H]2[C@@H](O)[C@H](O)[C@@H](CO)O[C@@H]2S1` [NAG-Bt, (3aR,5R,6S,7R,7aR)-5-(hydroxymethyl)-2-propyl-5,6,7,7a-tetrahydro-3aH-pyrano[3,2-d]thiazole-6,7-diol], the “O-GlcNAc levels in brain and muscle tissue” value ([1]; IV 0 to 250 mg/kg, Western blot) was “dose-dependent elevation”, the “elevation of O-GlcNAc levels over baseline in brain tissue” value [1, 4] was “roughly 25 fold” and the “elevation of O-GlcNAc levels over baseline in muscle tissue” value [1, 4] was “roughly 10 fold”. For the same compound, the “minimum IV dose required for an observable effect in brain” value ([1]; IV, O-GlcNAc levels) was “roughly 5 mg/kg”, the “brain tau phosphorylation at Ser214 and Ser404” value [2] was “increases phosphorylation” and the “brain tau phosphorylation at Thr231 and Ser396” value [2] was “essentially blocks phosphorylation”. For the same compound, the “brain tau phosphorylation at the Tau-1 epitope (Ser195, Ser198, Ser199, Ser202), Ser199, Ser262, Ser396, Ser422, and Thr231” value [2] was “decreases in phosphorylation”, the ALT [3, 5] was 109.3 iu/l and the AST [3, 5] was 202.3 iu/l. The Albumin [3, 5] was 47.8 g/L, the Albumin/Globulin [3, 5] was 1.6 and the Alkaline phsphatase [3, 5] was 168.3 iu/l. For the same compound, the Anion Gap [3, 5] was 29.8 mM, the Bilirubin total [3, 5] was 0.0 µM and the “Blood Urea Nitrogen” value [3, 5] was 8.9 mM. For the same compound, the Calcium [3, 5] was 2.7 mM, the “Carbon Dioxide” value [3, 5] was 17.5 mM and the Chloride [3, 5] was 104.5 mM. For the same compound, the Cholesterol [3, 5] was 2.9 mM, the “Creatine Phosphokinase” value [3, 5] was 1324.5 iu/l and the Creatinine [3, 5] was 29.0 µM. The Gamma gt [3, 5] was 17.5 iu/l, the Globulin [3, 5] was 30.3 g/L and the Glucose [3, 5] was 2.0 mM. It also gave a Hematocrit [3, 5] of 0.5 l/l, a Hemoglobin [3, 5] of 169.5 g/L and a Lymphs % [3, 5] of 82.3%. For the same compound, the “Mean Corp Hemoglobin” value [3, 5] was 16.9 pg, the “Mean Corp Vol.” value [3, 5] was 53.3 fL and the “Mean Platelet Vol” value [3, 5] was 9.3 fL. The Monocytes % [3, 5] was 4.3%, the “Nonesterified Fatty Acids” value [3, 5] was 1.8 mM and the Osmolality [3, 5] was 292.9 mmol/kg. The Phosphorus [3, 5] was 2.2 mM, the Platelet cnt [3, 5] was 561.8 10e9/L and the Polys % [3, 5] was 10.8%. For the same compound, the Potassium [3, 5] was 5.9 mM, the RDW [3, 5] was 17.4 and the Red cell cnt [3, 5] was 10.1 10^12/L. For the same compound, the Sodium [3, 5] was 145.8 mM, the “Sorbitol Dehydrogenase” value [3, 5] was 22.3 iU/L and the “Total Protein” value [3, 5] was 78.0 g/L. For the same compound, the Triglyceride [3, 5] was 2.7 mM, the White cell cnt [3, 5] was 3.8 1e9/l and the “hematology (CBC), serum chemistry and urinalysis: differences between groups” value [3, 5] was “no statistically significant differences”. For the same compound, the “changes in ALT, AST, bilirubin or sorbitol dehydrogenase (liver toxicity)” value ([3]; rats, oral 100 mg/kg/day, four months) was “no changes”.
